# Activity calls are given as the source filed them. No cut-off for these calls is given here.
# What was measured:
# [1] = Cytotoxicity against human NCI60 cells; type: functional
# NCI-H226 = experiment: Cytotoxicity against human NCI-H226 cells at 10 uM after 48 hrs by sulforhodamine B assay relative to control; type: functional
# NCI-H322M = experiment: Cytotoxicity against human NCI-H322M cells at 10 uM after 48 hrs by sulforhodamine B assay relative to control; type: functional
# COLO 205 = experiment: Cytotoxicity against human COLO205 cells at 10 uM after 48 hrs by sulforhodamine B assay relative to control; type: functional
# CCRF-CEM = experiment: Cytotoxicity against human CCRF-CEM cells at 10 uM after 48 hrs by sulforhodamine B assay relative to control; type: functional
# SNB-19 = experiment: Cytotoxicity against human SNB19 cells at 10 uM after 48 hrs by sulforhodamine B assay relative to control; type: functional
# RPMI-8226 = experiment: Cytotoxicity against human RPMI8226 cells at 10 uM after 48 hrs by sulforhodamine B assay relative to control; type: functional
# SNB-75 = experiment: Cytotoxicity against human SNB75 cells at 10 uM after 48 hrs by sulforhodamine B assay relative to control; type: functional
# UACC-257 = experiment: Cytotoxicity against human UACC257 cells at 10 uM after 48 hrs by sulforhodamine B assay relative to control; type: functional
# HL-60(TB) = experiment: Cytotoxicity against human HL-60(TB) cells at 10 uM after 48 hrs by sulforhodamine B assay relative to control; type: functional
# HOP-62 = experiment: Cytotoxicity against human HOP62 cells at 10 uM after 48 hrs by sulforhodamine B assay relative to control; type: functional
# CAKI-1 = experiment: Cytotoxicity against human CAKI-1 cells at 10 uM after 48 hrs by sulforhodamine B assay relative to control; type: functional
# KM12 = experiment: Cytotoxicity against human KM12 cells at 10 uM after 48 hrs by sulforhodamine B assay relative to control; type: functional
# MCF7 = experiment: Cytotoxicity against human MCF7 cells at 10 uM after 48 hrs by sulforhodamine B assay relative to control; type: functional
# UO-31 = experiment: Cytotoxicity against human UO31 cells at 10 uM after 48 hrs by sulforhodamine B assay relative to control; type: functional
# U-251 = experiment: Cytotoxicity against human U251 cells at 10 uM after 48 hrs by sulforhodamine B assay relative to control; type: functional
# SK-MEL-2 = experiment: Cytotoxicity against human SK-MEL-2 cells at 10 uM after 48 hrs by sulforhodamine B assay relative to control; type: functional
# RXF 393 = experiment: Cytotoxicity against human RXF393 cells at 10 uM after 48 hrs by sulforhodamine B assay relative to control; type: functional
# NCI-H23 = experiment: Cytotoxicity against human NCI-H23 cells at 10 uM after 48 hrs by sulforhodamine B assay relative to control; type: functional
# SK-MEL-5 = experiment: Cytotoxicity against human SK-MEL-5 cells at 10 uM after 48 hrs by sulforhodamine B assay relative to control; type: functional
# NCI-H460 = experiment: Cytotoxicity against human NCI-H460 cells at 10 uM after 48 hrs by sulforhodamine B assay relative to control; type: functional
# HOP-92 = experiment: Cytotoxicity against human HOP92 cells at 10 uM after 48 hrs by sulforhodamine B assay relative to control; type: functional
# IGROV-1 = experiment: Cytotoxicity against human IGROV1 cells at 10 uM after 48 hrs by sulforhodamine B assay relative to control; type: functional
# MDA-MB-468 = experiment: Cytotoxicity against human MDA-MB-468 cells at 10 uM after 48 hrs by sulforhodamine B assay relative to control; type: functional
# NCI/ADR-RES = experiment: Cytotoxicity against human NCI/ADR-RES cells at 10 uM after 48 hrs by sulforhodamine B assay relative to control; type: functional
# PC-3 [2] = experiment: Cytotoxicity against human PC3 cells after 48 hrs by sulforhodamine B assay; type: functional, cell-based; conditions: PC-3, 48 h
# NCI-H522 = experiment: Cytotoxicity against human NCI-H522 cells at 10 uM after 48 hrs by sulforhodamine B assay relative to control; type: functional
# T47D = experiment: Cytotoxicity against human T47D cells at 10 uM after 48 hrs by sulforhodamine B assay relative to control; type: functional
# MDA-MB-435 = experiment: Cytotoxicity against human MDA-MB-435 cells at 10 uM after 48 hrs by sulforhodamine B assay relative to control; type: functional
# OVCAR-8 = experiment: Cytotoxicity against human OVCAR8 cells at 10 uM after 48 hrs by sulforhodamine B assay relative to control; type: functional
# SF-295 = experiment: Cytotoxicity against human SF295 cells at 10 uM after 48 hrs by sulforhodamine B assay relative to control; type: functional
# SF-268 = experiment: Cytotoxicity against human SF268 cells at 10 uM after 48 hrs by sulforhodamine B assay relative to control; type: functional
# SW-620 = experiment: Cytotoxicity against human SW620 cells at 10 uM after 48 hrs by sulforhodamine B assay relative to control; type: functional
# PC-3 [3] = experiment: Cytotoxicity against human PC3 cells at 10 uM after 48 hrs by sulforhodamine B assay relative to control; type: functional
# TK-10 = experiment: Cytotoxicity against human TK10 cells at 10 uM after 48 hrs by sulforhodamine B assay relative to control; type: functional
# HCC 2998 = experiment: Cytotoxicity against human HCC2998 cells at 10 uM after 48 hrs by sulforhodamine B assay relative to control; type: functional
# SF-539 = experiment: Cytotoxicity against human SF539 cells at 10 uM after 48 hrs by sulforhodamine B assay relative to control; type: functional
# OVCAR-4 = experiment: Cytotoxicity against human OVCAR4 cells at 10 uM after 48 hrs by sulforhodamine B assay relative to control; type: functional
# Homo sapiens = species: Homo sapiens; experiment: Inhibition of telomerase (unknown origin) at 10 uM TRAP assay
# SR = experiment: Cytotoxicity against human SR cells at 10 uM after 48 hrs by sulforhodamine B assay relative to control; type: functional
# SN12C = experiment: Cytotoxicity against human SN12C cells at 10 uM after 48 hrs by sulforhodamine B assay relative to control; type: functional
# M14 = experiment: Cytotoxicity against human M14 cells at 10 uM after 48 hrs by sulforhodamine B assay relative to control; type: functional
# Malme-3M = experiment: Cytotoxicity against human MALME-3M cells at 10 uM after 48 hrs by sulforhodamine B assay relative to control; type: functional
# 786-0 = experiment: Cytotoxicity against human 786-0 cells at 10 uM after 48 hrs by sulforhodamine B assay relative to control; type: functional
# HCT-15 = experiment: Cytotoxicity against human HCT15 cells at 10 uM after 48 hrs by sulforhodamine B assay relative to control; type: functional
# K562 = experiment: Cytotoxicity against human K562 cells at 10 uM after 48 hrs by sulforhodamine B assay relative to control; type: functional
# HT-29 = experiment: Cytotoxicity against human HT-29 cells at 10 uM after 48 hrs by sulforhodamine B assay relative to control; type: functional
# [4] = Cytotoxicity against human Hs 578T cells at 10 uM after 48 hrs by sulforhodamine B assay relative to control; type: functional
# UACC-62 = experiment: Cytotoxicity against human UACC62 cells at 10 uM after 48 hrs by sulforhodamine B assay relative to control; type: functional
# LOX IMVI = experiment: Cytotoxicity against human LOXIMVI cells at 10 uM after 48 hrs by sulforhodamine B assay relative to control; type: functional
# MDA-MB-231 = experiment: Cytotoxicity against human MDA-MB-231 cells at 10 uM after 48 hrs by sulforhodamine B assay relative to control; type: functional
# OVCAR-3 = experiment: Cytotoxicity against human OVCAR3 cells at 10 uM after 48 hrs by sulforhodamine B assay relative to control; type: functional
# SK-MEL-28 = experiment: Cytotoxicity against human SK-MEL-28 cells at 10 uM after 48 hrs by sulforhodamine B assay relative to control; type: functional
# OVCAR-5 = experiment: Cytotoxicity against human OVCAR5 cells at 10 uM after 48 hrs by sulforhodamine B assay relative to control; type: functional
# [5] = Cytotoxicity against human EKVX cells at 10 uM after 48 hrs by sulforhodamine B assay relative to control; type: functional
# A549 = experiment: Cytotoxicity against human A549 cells at 10 uM after 48 hrs by sulforhodamine B assay relative to control; type: functional
# BT-549 = experiment: Cytotoxicity against human BT549 cells at 10 uM after 48 hrs by sulforhodamine B assay relative to control; type: functional
# HCT-116 = experiment: Cytotoxicity against human HCT116 cells at 10 uM after 48 hrs by sulforhodamine B assay relative to control; type: functional
# DU-145 = experiment: Cytotoxicity against human DU145 cells at 10 uM after 48 hrs by sulforhodamine B assay relative to control; type: functional
# MOLT-4 = experiment: Cytotoxicity against human MOLT4 cells at 10 uM after 48 hrs by sulforhodamine B assay relative to control; type: functional
# ACHN = experiment: Cytotoxicity against human ACHN cells at 10 uM after 48 hrs by sulforhodamine B assay relative to control; type: functional
# [6] = target: DNA topoisomerase 1 (Homo sapiens) (UniProt P11387); experiment: Inhibition of recombinant human DNA topoisomerase 1-mediated relaxation of supercoiled pHOT DNA at 25 to 50 uM after 45 mins by agarose gel electrophoresis
# Chain of DNA topoisomerase 1 (Homo sapiens) (P11387 whole entry): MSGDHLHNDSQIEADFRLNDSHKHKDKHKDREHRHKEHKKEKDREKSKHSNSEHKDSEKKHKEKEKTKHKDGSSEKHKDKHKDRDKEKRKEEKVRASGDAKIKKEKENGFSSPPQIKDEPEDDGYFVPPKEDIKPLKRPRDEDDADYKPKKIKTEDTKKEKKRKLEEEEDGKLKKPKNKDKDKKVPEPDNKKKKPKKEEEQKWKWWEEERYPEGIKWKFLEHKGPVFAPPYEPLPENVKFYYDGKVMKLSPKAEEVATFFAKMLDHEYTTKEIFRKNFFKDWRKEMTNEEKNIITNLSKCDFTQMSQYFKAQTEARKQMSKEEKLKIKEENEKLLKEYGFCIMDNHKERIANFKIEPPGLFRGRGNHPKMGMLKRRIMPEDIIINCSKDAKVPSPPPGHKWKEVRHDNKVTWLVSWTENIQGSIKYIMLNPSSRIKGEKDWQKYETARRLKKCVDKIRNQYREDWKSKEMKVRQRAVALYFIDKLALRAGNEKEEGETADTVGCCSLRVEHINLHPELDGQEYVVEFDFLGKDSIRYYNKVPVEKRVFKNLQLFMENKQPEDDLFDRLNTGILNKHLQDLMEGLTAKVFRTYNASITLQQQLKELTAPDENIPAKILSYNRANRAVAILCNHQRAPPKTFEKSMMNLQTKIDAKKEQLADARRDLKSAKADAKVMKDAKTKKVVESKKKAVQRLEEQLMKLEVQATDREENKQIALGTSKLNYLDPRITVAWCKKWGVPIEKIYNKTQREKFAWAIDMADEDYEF
smiles,measurement,setting,value
O=C(CCN1CCCC1)Nc1ccc2c(c1)C(=O)c1cc(NC(=O)CCN3CCCC3)ccc1C2=O,GI50,[1],3890 nM
CCNCCC(=O)Nc1ccc2c(c1)C(=O)c1cc(NC(=O)CCNCC)ccc1-2,Activity,NCI-H226,105.54%
same,Activity,NCI-H322M,100.96%
same,Activity,COLO 205,110.13%
same,Activity,CCRF-CEM,101.3%
same,Activity,SNB-19,100.42%
same,Activity,RPMI-8226,104.16%
same,Activity,SNB-75,92.33%
same,Activity,UACC-257,111.63%
same,Activity,HL-60(TB),104.46%
same,Activity,HOP-62,105.98%
same,Activity,CAKI-1,96.47%
same,Activity,KM12,114.64%
same,Activity,MCF7,87.69%
same,Activity,UO-31,102.42%
same,Activity,U-251,92.86%
same,Activity,SK-MEL-2,126.91%
same,Activity,RXF 393,105.09%
same,Activity,NCI-H23,98.77%
same,Activity,SK-MEL-5,102.17%
same,Activity,NCI-H460,109.14%
same,Activity,HOP-92,87.24%
same,Activity,IGROV-1,108.06%
same,Activity,MDA-MB-468,96.83%
same,Activity,NCI/ADR-RES,96.39%
same,IC50,PC-3 [2],> 30000 nM
same,Activity,NCI-H522,103.53%
same,Activity,T47D,108.97%
same,Activity,MDA-MB-435,97.63%
same,Activity,OVCAR-8,103.63%
same,Activity,SF-295,88.95%
same,Activity,SF-268,121.13%
same,Activity,SW-620,101.71%
same,Activity,PC-3 [3],101.42%
same,Activity,TK-10,103.34%
same,Activity,HCC 2998,104.87%
same,Activity,SF-539,116.97%
same,Activity,OVCAR-4,105.01%
same,inhibition,Homo sapiens,inactive
same,Activity,SR,101.47%
same,Activity,SN12C,94.35%
same,Activity,M14,113.99%
same,Activity,Malme-3M,101.61%
same,Activity,786-0,102.08%
same,Activity,HCT-15,108.19%
same,Activity,K562,92.16%
same,Activity,HT-29,104.19%
same,Activity,[4],98.9%
same,Activity,UACC-62,100.48%
same,Activity,LOX IMVI,97.55%
same,Activity,MDA-MB-231,105.71%
same,Activity,OVCAR-3,120.25%
same,Activity,SK-MEL-28,105.31%
same,Activity,OVCAR-5,110.42%
same,Activity,[5],102.12%
same,Activity,A549,94.72%
same,Activity,BT-549,119.2%
same,Activity,HCT-116,109.77%
same,Activity,DU-145,120.33%
same,Activity,MOLT-4,98.76%
same,Activity,ACHN,120.72%
CCN(CC)CCC(=O)Nc1ccc2c(c1)C(=O)c1cc(NC(=O)CCN(CC)CC)ccc1C2=O,GI50,[1],2570 nM
CN(C)CC(=O)Nc1ccc2c(c1)C(=O)c1cc(NC(=O)CN(C)C)ccc1C2=O,inhibition,[6],Active
same,GI50,[1],2090 nM

# — ChEMBL document CHEMBL2439971, “Design, synthesis and antiproliferative evaluation of fluorenone analogs with DNA topoisomerase I inhibitory properties” (Bioorg Med Chem, 2013)
